Measurements taken from ChEMBL document CHEMBL3797167, “Development of a peptide-based inducer of nuclear receptors degradation” (Bioorg Med Chem Lett, 2016).
The source made the active and inactive calls. No cut-off for these calls is given here.

Assays:
Assay type in all cases: cell-based
[1] = biological target: T1, Estrogen receptor (Homo sapiens) (UniProt P03372); assay: Induction of ERalpha degradation in human MCF7 cells assessed as ERalpha/actin ratio level at 3 uM after 6 hrs by Western blot analysis (reference value: 100%)
T1 sequence (whole entry): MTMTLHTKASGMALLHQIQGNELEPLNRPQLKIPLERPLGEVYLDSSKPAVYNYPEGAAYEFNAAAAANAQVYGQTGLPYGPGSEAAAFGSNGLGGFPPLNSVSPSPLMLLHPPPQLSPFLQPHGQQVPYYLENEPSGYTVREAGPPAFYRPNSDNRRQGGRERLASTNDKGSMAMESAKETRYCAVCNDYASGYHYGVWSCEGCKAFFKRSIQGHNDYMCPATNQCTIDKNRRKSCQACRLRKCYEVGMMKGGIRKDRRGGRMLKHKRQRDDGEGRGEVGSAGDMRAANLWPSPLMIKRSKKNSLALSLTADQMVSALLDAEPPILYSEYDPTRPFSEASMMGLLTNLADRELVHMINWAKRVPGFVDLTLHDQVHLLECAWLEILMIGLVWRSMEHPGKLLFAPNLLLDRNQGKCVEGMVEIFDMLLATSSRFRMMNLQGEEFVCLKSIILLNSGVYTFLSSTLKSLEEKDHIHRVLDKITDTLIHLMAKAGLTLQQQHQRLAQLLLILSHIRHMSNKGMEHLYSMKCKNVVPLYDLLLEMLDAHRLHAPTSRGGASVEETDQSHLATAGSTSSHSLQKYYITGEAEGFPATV

[2] = biological target: T1, Estrogen receptor (Homo sapiens); assay: Induction of ERalpha degradation in human MCF7 cells assessed as ERalpha/actin ratio level at 1 uM after 6 hrs by Western blot analysis (reference value: 100%)
[3] = biological target: T1, Estrogen receptor (Homo sapiens); assay: Induction of ERalpha degradation in human MCF7 cells assessed as ERalpha/actin ratio level at 0.3 uM after 6 hrs by Western blot analysis (reference value: 100%)
[4] = biological target: T1, Estrogen receptor (Homo sapiens); assay: Induction of ERalpha degradation in human MCF7 cells at 0.3 to 3 uM after 6 hrs by Western blot analysis
[5] = biological target: T1, Estrogen receptor (Homo sapiens); assay: Induction of ERalpha degradation in human MCF7 cells assessed as ERalpha/actin ratio level at 0.1 uM after 6 hrs by Western blot analysis (reference value: 100%)
[6] = biological target: T1, Estrogen receptor (Homo sapiens); assay: Induction of ERalpha degradation in human MCF7 cells at 0.1 to 1 uM after 6 hrs by Western blot analysis
[7] = biological target: Baculoviral IAP repeat-containing protein 2 (Homo sapiens) (UniProt Q13490); assay: Induction of cIAP1 degradation in human MCF7 cells at 1 uM after 6 hrs by Western blot analysis
Chain of Baculoviral IAP repeat-containing protein 2 (Homo sapiens) (Q13490 whole entry): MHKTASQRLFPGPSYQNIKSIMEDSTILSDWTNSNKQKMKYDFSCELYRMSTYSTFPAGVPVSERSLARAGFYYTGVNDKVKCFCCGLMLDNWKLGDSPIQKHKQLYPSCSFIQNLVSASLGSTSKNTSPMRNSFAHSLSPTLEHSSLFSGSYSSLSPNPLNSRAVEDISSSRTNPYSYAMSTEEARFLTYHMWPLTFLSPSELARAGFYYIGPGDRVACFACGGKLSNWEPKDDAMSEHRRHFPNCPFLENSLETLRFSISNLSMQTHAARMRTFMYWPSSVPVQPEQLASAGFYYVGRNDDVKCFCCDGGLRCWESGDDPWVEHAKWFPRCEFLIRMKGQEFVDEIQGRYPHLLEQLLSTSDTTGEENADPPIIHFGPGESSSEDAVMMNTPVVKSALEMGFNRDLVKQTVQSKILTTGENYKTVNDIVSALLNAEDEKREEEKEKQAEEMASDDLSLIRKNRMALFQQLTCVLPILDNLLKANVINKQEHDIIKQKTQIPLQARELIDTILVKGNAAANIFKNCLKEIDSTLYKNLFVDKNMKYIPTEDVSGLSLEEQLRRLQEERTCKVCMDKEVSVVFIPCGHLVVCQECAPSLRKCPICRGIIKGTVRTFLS

MCF7 = assay: Cytotoxicity against human MCF7 cells at 10 uM after 6 hrs; conditions: mcf7, 6 h
[8] = biological target: T1, Estrogen receptor (Homo sapiens); assay: Induction of ERalpha degradation in human MCF7 cells at 3 to 10 uM after 6 hrs by Western blot analysis
[9] = biological target: T1, Estrogen receptor (Homo sapiens); assay: Induction of ERalpha degradation in human MCF7 cells assessed as ERalpha/actin ratio level at 5 uM after 6 hrs by Western blot analysis (reference value: 100%)
[10] = biological target: T1, Estrogen receptor (Homo sapiens); assay: Induction of ERalpha degradation in human MCF7 cells assessed as ERalpha/actin ratio level at 10 uM after 6 hrs by Western blot analysis (reference value: 100%)

Row | SMILES | Activity [1] [%] | Activity [2] [%] | Activity [3] [%] | Activity [4] | Activity [5] [%] | Activity [6] | Activity [7] | Activity (MCF7) | Activity [8] | Activity [9] [%] | Activity [10] [%]
1 | CC[C@H](C)[C@H]1NC(=O)[C@@H](NC(=O)[C@@H](N)CCCCNC(=O)[C@@H](NC(=O)[C@@H]2CCCN2C(=O)[C@H](NC(=O)[C@H](C)NC)C2CCCCC2)C(c2ccccc2)c2ccccc2)CSSC[C@H](C(=O)N[C@H](CCCNC(=N)N)C(=O)N[C@H](CC(C)(C)C)C(=O)N[C@H](CC(C)C)C(=O)N[C@H](CCC(N)=O)C(=O)NCC(=O)NCC(=O)NCC(=O)N[C@H](CCCNC(=N)N)C(=O)N[C@H](CCCNC(=N)N)C(=O)N[C@H](CCCNC(=N)N)C(=O)N[C@H](CCCNC(=N)N)C(=O)N[C@H](CCCNC(=N)N)C(=O)N[C@H](CCCNC(=N)N)C(=O)N[C@@H](CCCNC(=N)N)C(N)=O)NC(=O)[C@@H](CC(C)C)NC1=O | 95 | 114 | 109 | inactive | – | – | – | – | – | – | –
2 | CC[C@H](C)[C@H]1NC(=O)[C@@H](NC(=O)[C@H](N)CCCCNC(=O)COCCOCCNC(=O)[C@@H](NC(=O)[C@@H]2CCCN2C(=O)[C@H](NC(=O)[C@H](C)NC)C2CCCCC2)C(c2ccccc2)c2ccccc2)CSSC[C@H](C(=O)N[C@H](CCCNC(=N)N)C(=O)N[C@H](CC(C)(C)C)C(=O)N[C@H](CC(C)C)C(=O)N[C@H](CCC(N)=O)C(=O)NCC(=O)NCC(=O)NCC(=O)N[C@H](CCCNC(=N)N)C(=O)N[C@H](CCCNC(=N)N)C(=O)N[C@H](CCCNC(=N)N)C(=O)N[C@H](CCCNC(=N)N)C(=O)N[C@H](CCCNC(=N)N)C(=O)N[C@H](CCCNC(=N)N)C(=O)N[C@@H](CCCNC(=N)N)C(N)=O)NC(=O)[C@@H](CC(C)C)NC1=O | – | 92 | 100 | – | 105 | inactive | Active | – | – | – | –
3 | CC[C@H](C)[C@H]1NC(=O)[C@@H](NC(=O)[C@H](CCCNC(=N)N)NC(=O)COCCOCCNC(=O)[C@@H](NC(=O)[C@@H]2CCCN2C(=O)[C@H](NC(=O)[C@H](C)NC)C2CCCCC2)C(c2ccccc2)c2ccccc2)CSSC[C@H](C(=O)N[C@H](CCCNC(=N)N)C(=O)N[C@H](CC(C)(C)C)C(=O)N[C@H](CC(C)C)C(=O)N[C@H](CCC(N)=O)C(=O)NCC(=O)NCC(=O)NCC(=O)N[C@H](CCCNC(=N)N)C(=O)N[C@H](CCCNC(=N)N)C(=O)N[C@H](CCCNC(=N)N)C(=O)N[C@H](CCCNC(=N)N)C(=O)N[C@H](CCCNC(=N)N)C(=O)N[C@H](CCCNC(=N)N)C(=O)N[C@@H](CCCNC(=N)N)C(N)=O)NC(=O)[C@@H](CC(C)C)NC1=O | 96 | – | – | – | – | – | – | Toxic | inactive | 99 | 236
